Read-outs that look alike come from different tables or passages of the source.
Experiments:
Type in all cases: cell-based
[1] = test system: Proteus mirabilis (PMI) isolates; assay: microbe, parasite or virus in culture; details: AF1 @ 4 μg/mL
Method in brief: (§1)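 Compound MIC, and antibacterial MIC at each fixed compound level, taken by visual inspection as lowest concentration stopping growth. Inoculum: log-phase bacteria, final 5·10^5 CFU/mL, cation-adjusted Mueller-Hinton broth; 16-20 h, 35° C, ambient air.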

[2] = test system: Citrobacter freundii (CFR) isolates; assay: MIC of compounds alone and combined with antibacterials, broth microdilution (CLSI)
Method in brief: as §1

[3] = test system: Enterobacter aerogenes (EAE) isolates; assay: as above; details: for MIC ATB in combination: AF1 @ 4 μg/mL; for MIC: Klebsiella aerogenes, ATB alone, read-out: MIC
Method in brief: as §1

[4] = test system: Citrobacter koseri (CKR) isolates; assay: as above; details: for MIC ATB in combination: AF1 @ 4 μg/mL; for MIC: Citrobacter koseri, ATB alone
Method in brief: as §1

[5] = test system: Providencia rettgeri (PRE) isolates; assay: as above
Method in brief: as §1

[6] = test system: Escherichia coli (ECO) isolates; assay: as above; details: AF1 @ 4 μg/mL
Method in brief: as §1

[7] = test system: Providencia stuartii (PST) isolates; assay: as above; details: AF1 @ 4 μg/mL
Method in brief: as §1

[8] = test system: Salmonella typhimurium (STY) isolates; assay: as above; details: STY S3371; AF1 @ 4 μg/mL
Method in brief: as §1

Structure (SMILES): C=CC1=C(C(=O)O)N2C(=O)[C@@H](NC(=O)/C(=N\O)c3csc(N)n3)[C@H]2SC1 [CDR, Cefdinir]
- MIC ATB in combination ([1]; PMI UFR82): 0.5 µg/mL
- MIC ATB in combination ([1]; PMI UFR120): <=0.25 μg/mL
- MIC ATB in combination ([1]; PMI UFR121): <=0.25 μg/mL
- MIC ATB in combination ([1]; PMI UFR122): <=0.25 μg/mL
- MIC ATB in combination ([1]; PMI UFR123): <=0.25 μg/mL
- MIC ATB in combination ([1]; PMI UFR124): <=0.25 μg/mL
- MIC ATB in combination ([1]; PMI UFR125): <=0.25 μg/mL
- MIC ATB in combination ([1]; PMI UFR126): <=0.25 μg/mL
- MIC ATB in combination ([1]; PMI UFR127): <=0.25 μg/mL
- MIC ATB in combination ([1]; PMI UFR129): <=0.25 μg/mL
- MIC ATB in combination ([1]; PMI UFR130): <=0.25 μg/mL
- MIC ATB in combination ([1]; PMI UFR237): <=0.25 μg/mL
- MIC ATB in combination ([2]; CFR UFR10, AF1 @ 4 μg/mL): <=0.25 μg/mL
- MIC ATB in combination ([2]; CFR UFR11, AF1 @ 4 μg/mL): 128 µg/mL
- MIC ATB in combination ([2]; CFR UFR83, AF1 @ 4 μg/mL): >128 µg/mL
- MIC ATB in combination ([2]; CFR UFR146, AF1 @ 4 μg/mL): 0.5 µg/mL
- MIC ATB in combination ([2]; CFR UFR248, AF1 @ 4 μg/mL): 0.5 µg/mL
- MIC ATB in combination ([2]; CFR UFR249, AF1 @ 4 μg/mL): <=0.25 μg/mL
- MIC ATB in combination ([2]; CFR UFR250, AF1 @ 4 μg/mL): <=0.25 μg/mL
- MIC ATB in combination ([2]; strain CFR UFR253, antibacterial combined with AF1 @ 4 μg/mL): <=0.25 μg/mL
- MIC ATB in combination ([2]; strain CFR UFR254, antibacterial combined with AF1 @ 4 μg/mL): <=0.25 μg/mL
- MIC ATB in combination ([3]; EAE 49469): 16 µg/mL
- MIC ATB in combination ([3]; EAE 200261): 8 µg/mL
- MIC ATB in combination ([3]; EAE UFR199): 1 µg/mL
- MIC ATB in combination ([3]; EAE UFR201): <=0.25 μg/mL
- MIC ATB in combination ([3]; EAE UFR202): 4 µg/mL
- MIC ATB in combination ([3]; EAE UFR213): 4 µg/mL
- MIC ([3]; strain EAE 200261 (TEM-x, AmpC)): > 256 µg/mL
- MIC ([3]; strain EAE UFR199 (TEM-1b, SHV-12, KPC-2, OXA-9)): > 256 µg/mL
- MIC ATB in combination ([4]; CKO ROU): 2 µg/mL
- MIC ATB in combination ([4]; CKO UFR149): 32 µg/mL
- MIC ATB in combination ([4]; CKO UFR150): 4 µg/mL
- MIC ([4]; strain CKO ROU (TEM-1, SHV-12, CTX-M-15, OXA-1, OXA-48)): > 256 µg/mL
- MIC ([4]; strain CKO UFR150 (TEM-1, OXA-48)): > 256 µg/mL
- MIC ATB in combination ([5]; PRE UFR99, AF1 @ 4 μg/mL): >128 µg/mL
- MIC ATB in combination ([5]; strain PRE UFR236, antibacterial combined with AF1 @ 4 μg/mL): 2 µg/mL
- MIC ATB in combination ([6]; ECO 4133): <=0.25 μg/mL
- MIC ATB in combination ([6]; ECO 5302): <=0.25 μg/mL
- MIC ATB in combination ([6]; ECO 131119): <=0.25 μg/mL
- MIC ATB in combination ([6]; ECO 180070): <=0.25 μg/mL
- MIC ATB in combination ([6]; ECO 190314): <=0.25 μg/mL
- MIC ATB in combination ([6]; ECO 190317): <=0.25 μg/mL
- MIC ATB in combination ([6]; ECO 190457): <=0.25 μg/mL
- MIC ATB in combination ([6]; ECO 190549): <=0.25 μg/mL
- MIC ATB in combination ([6]; ECO 200159): <=0.25 μg/mL
- MIC ATB in combination ([6]; ECO 200259): <=0.25 μg/mL
- MIC ATB in combination ([6]; ECO 200344): <=0.25 μg/mL
- MIC ATB in combination ([6]; ECO 260096): <=0.25 μg/mL
- MIC ATB in combination ([6]; ECO 260304): <=0.25 μg/mL
- MIC ATB in combination ([6]; ECO 260508): <=0.25 μg/mL
- MIC ATB in combination ([6]; ECO RGN238): <=0.25 μg/mL
- MIC ATB in combination ([6]; ECO UFR15): <=0.25 μg/mL
- MIC ATB in combination ([6]; ECO UFR16): 1 µg/mL
- MIC ATB in combination ([6]; ECO UFR18): 4 µg/mL
- MIC ATB in combination ([6]; ECO UFR19): 2 µg/mL
- MIC ATB in combination ([6]; ECO UFR20): 16 µg/mL
- MIC ATB in combination ([6]; ECO UFR61O): 0.25 µg/mL
- MIC ATB in combination ([6]; ECO UFR62): 0.5 µg/mL
- MIC ATB in combination ([6]; ECO UFR74): 1 µg/mL
- MIC ATB in combination ([6]; ECO UFR86): 1 µg/mL
- MIC ATB in combination ([6]; ECO UFR174): <=0.25 μg/mL
- MIC ATB in combination ([6]; ECO UFR175): 0.5 µg/mL
- MIC ATB in combination ([6]; ECO UFR176): <=0.25 μg/mL
- MIC ATB in combination ([6]; ECO UFR184): 16 µg/mL
- MIC ATB in combination ([6]; ECO UFR186): 1 µg/mL
- MIC ATB in combination ([6]; ECO UFR187): 0.5 µg/mL
- MIC ATB in combination ([6]; ECO UFR189): <=0.25 μg/mL
- MIC ATB in combination ([6]; ECO UFR190): 0.5 µg/mL
- MIC ATB in combination ([6]; ECO UFR191): 1 µg/mL
- MIC ATB in combination ([6]; ECO UFR207): <=0.25 μg/mL
- MIC ATB in combination ([6]; ECO UFR209): <=0.25 μg/mL
- MIC ATB in combination ([6]; ECO UFR210): <=0.25 μg/mL
- MIC ATB in combination ([6]; ECO UFR211): <=0.25 μg/mL
- MIC ATB in combination ([6]; ECO UFR212): 32 µg/mL
- MIC ATB in combination ([6]; ECO UFR218): <=0.25 μg/mL
- MIC ATB in combination ([7]; PST UFR94): <=0.25 μg/mL
- MIC ATB in combination ([7]; PST UFR95): 1 µg/mL
- MIC ATB in combination ([7]; PST UFR235): 2 µg/mL
- MIC ATB in combination [8]: <=0.25 μg/mL

From patent publication US20200017496A1 (priority 2017, published 2020)
